Results reported in patent US12312292B2, “Long chain alkyl esteramine lipid compound, preparation method therefor and application thereof in nucleic acid delivery” (RinuaGene Biotechnology Co., Ltd., priority 2022, dated 2025).

What was measured:
luciferase mRNA = assay: Detection of reporter gene (luciferase mRNA) expression in mice in vivo; parameters: species or system BALB/c female mice; conditions: LNP-delivered luciferase mRNA, quadriceps muscle injection, IVIS 24 h after injection; dose (5 or 14 μg mRNA) not given
Method: The prepared LNP-encapsulated mRNA solution was diluted with PBS buffer to obtain the solution for injection. BALB/c female mice at about 20 g were injected with injection solution at the quadriceps muscle site of mice with an insulin syringe, and each mouse was injected with 50 μL. Two doses were designed: one dose of “5 μg mRNA per 50 μL of injection solution” and the other dose of “14 μg mRNA per 50 μL of injection solution”. BALB/c female mice at about 20 g are injected with PBS buffer at the quadriceps muscle site of mice with an insulin syringe, and each mouse was injected with 50 μL.
After the mice were injected for 24 h, in vivo expression of Luciferase was detected with Perkinelmer's IVIS. The substrate was D-luciferin Sodium salt (GOLDBIO, LUCNA-1G), which was formulated into a concentration of 15 mg/mL with normal saline, filtered and sterilized with a 0.22 μm filter membrane, and stored at −20° C. in aliquots protected from light. Before imaging, each mouse at about 20 g was intraperitoneally injected with 200 μL of substrate solution for 10-20 minutes, and then was anesthetized with isoflurane gas and placed prone on the imaging plate to detect the fluorescence of the animal in vivo, and the results are shown in Table 2.

[1] = In vivo expression distribution analysis of delivered luciferase mRNA (RT-PCR in tissues); parameters: species or system C57BL/6J mice; conditions: single intramuscular injection 50 μg; for Exposure in tissues and organs, from high to low: delivered luciferase mRNA, 2 h-336 h, RT-PCR
Method: In order to investigate the distribution features of lipid-delivering mRNA in vivo, we analyzed the distribution features of the reporter luciferase mRNA of the compounds of the present invention in C57BL/6J mice after administration by a single intramuscular injection. The experimental 10 C57BL/6J mice were enrolled, male and female, each administered 50 μg, with SM102 as the control.
Animals in the negative control group were collected at 2 h and 336 h after administration, and animals in the test group were collected at 2 h, 6 h, 24 h, 48 h, 72 h, 120 h, 168 h, and 336 h after administration whole blood, bone marrow, liver, spleen, heart, kidney, inguinal lymph nodes, mesenteric lymph nodes, spleen, brain, stomach, small intestine, non-injection site muscle, injection site muscle tissue, etc. The RNA content in the samples at each time point was detected by RT-PCR, and the lower limit of quantification of the method was […] to reflect the distribution features in C57BL/6J mice.

BALB/c female mice = assay: Acute toxicity analysis of lipid molecules (cationic lipid LNP) in BALB/c female mice; conditions: blood 24 h after injection, Ave(SD)
[2] = mRNA-LNP encapsulation: particle size, PDI and encapsulation rate of LNP; type: physicochemical
Method: The mRNA stock solution was dispersed in 20 mM acetic acid solution (pH 5.0) to a final concentration of 200 μg/mL (aqueous phase). A fat mixture (oil phase) was obtained by mixing under a molar ratio of the exemplary compound:cholesterol:DSPC:DMG-PEG2000=50:38.5:10:1.5. The flow rate of the aqueous phase and the oil phase was controlled by T mixed flow, and the mRNA and lipid mixture were mixed under the volume ratio of 3:1 to obtain LNP-encapsulated mRNA. The encapsulated LNP was diluted 10-fold with buffer, then concentrated by ultrafiltration, and the dilute was displaced, and finally the LNP was concentrated to mRNA being 200 µg/mL, and the pH of the LNP was adjusted to about 7-8. Finally, the Ribogreen kit and 10% OTG were used as demulsifiers to detect the total content of mRNA and the content of […], and the encapsulation rate of LNP was calculated. The LNP final product was diluted 10-fold with diluent, added 1 mL into a particle size cell, and placed on the Malvern ZetaSizer instrument to detect the particle size and PDI of LNP.

[3] = LNP of compound:cholesterol:DSPC:DMG-PEG2000=50:38.5:10:1.5 with mRNA, Malvern ZetaSizer

| SMILES | Average fluorescence intensity (luciferase mRNA) [P/s/cm^2/sr] | Exposure in tissues and organs, from high to low [1] | Alanine aminotransferase (BALB/c female mice; high dose group, 150 μg LNP/pc) [U/L] | Alkaline phosphatase (ALP) (BALB/c female mice; high dose group, 150 μg LNP/pc) [U/L] | Aspartate aminotransferase (BALB/c female mice; high dose group, 150 μg LNP/pc) [U/L] | Creatinine (BALB/c female mice; high dose group, 150 μg LNP/pc) [µmol/L] | γ-Glutamyltransferase (GGT) (BALB/c female mice; high dose group, 150 μg LNP/pc) | Alanine aminotransferase (BALB/c female mice; low dose group, 50 μg/pc) | Alkaline phosphatase (ALP) (BALB/c female mice; low dose group, 50 μg/pc) [U/L] | Aspartate aminotransferase (BALB/c female mice; low dose group, 50 μg/pc) [U/L] | Creatinine (BALB/c female mice; low dose group, 50 μg/pc) [µmol/L] | γ-Glutamyltransferase (GGT) (BALB/c female mice; low dose group, 50 μg/pc) | other results |
| --- | --- | --- | --- | --- | --- | --- | --- | --- | --- | --- | --- | --- | --- |
| CCCCCCCCCCCOC(=O)CCCCCN(CCCCCCCC(=O)OC(CCCCCCCC)CCCCCCCC)CC1(O)CC1 [Example 13] | 2.78E+05 | inguinal lymph nodes, injection site muscles, non-injection site muscles, whole blood, spleen, bone marrow, mesenteric lymph nodes, heart, liver, kidneys, stomach, small intestine and brain | 39.99 | 109.84 | 126.77 | 12.4 | 0.18 (0.18) U/L | 36.19 (3.01) U/L | 111.74 | 110.27 | 13.5 | 0.38 (0.41) U/L | Level (distribution) of delivered mRNA in the stomach ([1]; compared with SM-102): relatively higher level; Total bilirubin (TBIL) (BALB/c female mice; high dose group, 150 μg LNP/pc): 1.34; Total bilirubin (TBIL) (BALB/c female mice; low dose group, 50 μg/pc): 1.18 (0.23) |
| CCCCCCCCCCCOC(=O)CCCCCN(CCCCCCCC(=O)OC(CCCCCCCC)CCCCCCCC)C1(CO)CC1 [Example 14] | 1.91E+03 | – | – | – | – | – | – | – | – | – | – | – | – |
| CCCCCCCCCCCOC(=O)CCCCCN(CCCCCCCC(=O)OC(CCCCCCCC)CCCCCCCC)CC1(CO)CCC1 [Example 15] | 1.57E+03 | – | – | – | – | – | – | – | – | – | – | – | – |
| CCCCCCCCCCCOC(=O)CCCCCN(CCCCCCCCO)CCCCCCCC(=O)OC(CCCCCCCC)CCCCCCCC [Example 4] | 5.47E+05 | – | – | – | – | – | – | – | – | – | – | – | – |
| CCCCCCCCCCCOC(=O)CCCCCN(CCCCCCCC(=O)OC(CCCCCCCC)CCCCCCCC)C(C)CCCO (stereo not shown) [Example 8] | 1.17E+03 | – | – | – | – | – | – | – | – | – | – | – | – |
| CCCCCCCCCCCOC(=O)CCCCCN(CCCCCCCC(=O)OC(CCCCCCCC)CCCCCCCC)CC(C)(C)CO [Example 10] | 7.37E+03 | – | – | – | – | – | – | – | – | – | – | – | – |
| CCCCCCCCCCCOC(=O)CCCCCN(CCCCCCCCCCCCO)CCCCCCCC(=O)OC(CCCCCCCC)CCCCCCCC [Example 7] | 4.73E+05 | injection site muscle, inguinal lymph nodes, whole blood, spleen, non-injection site muscle, bone marrow, heart, liver, mesenteric lymph nodes, kidney, small intestine and brain | 39.92 | 103.8 | 138.44 | 12.2 | 0.22 (0.04) U/L | 33.56 (5.17) U/L | 107.58 | 109.54 | 13.6 | 0.06 (0.12) U/L | Level (distribution) of delivered mRNA in the stomach ([1]; compared with SM-102): higher distribution; Level (distribution) of delivered mRNA in the stomach ([1]; compared with SM-102, listed as compound 7): relatively higher level; Total bilirubin (TBIL) (BALB/c female mice; high dose group, 150 μg LNP/pc): 1.35; Total bilirubin (TBIL) (BALB/c female mice; low dose group, 50 μg/pc): 1.18 (0.16) |
| CCCCCCCCCCCOC(=O)CCCCCN(CCCCCCCC(=O)OC(CCCCCCCC)CCCCCCCC)CC(F)(F)CO [Example 11] | 1.39E+03 | – | – | – | – | – | – | – | – | – | – | – | – |
| CCCCCCCCCCCOC(=O)CCCCCN(CCCCCCCCCCO)CCCCCCCC(=O)OC(CCCCCCCC)CCCCCCCC [Example 6] | 5.08E+05 | – | – | – | – | – | – | – | – | – | – | – | – |
| CCCCCCCCCCCOC(=O)CCCCCN(CCCCCCCCCO)CCCCCCCC(=O)OC(CCCCCCCC)CCCCCCCC [Example 5] | 5.67E+05 | – | – | – | – | – | – | – | – | – | – | – | – |
| CCCCCCCCCCCOC(=O)CCCCCN(CCCCCCCO)CCCCCCCC(=O)OC(CCCCCCCC)CCCCCCCC [Example 3] | 8.55E+05 | – | – | – | – | – | – | – | – | – | – | – | – |
| CCCCCCCCCCCOC(=O)CCCCCN(CCCCCCCC(=O)OC(CCCCCCCC)CCCCCCCC)CC1(CO)CC1 [Example 12] | 3.62E+03 | – | – | – | – | – | – | – | – | – | – | – | – |
| CCCCCCCCCCCOC(=O)CCCCCN(CCCCCO)CCCCCCCC(=O)OC(CCCCCCCC)CCCCCCCC [Example 1] | 1.218E+06 | injection site muscle, inguinal lymph nodes, whole blood, spleen, non-injection site muscle, bone marrow, heart, liver, mesenteric lymph nodes, kidney, small intestine and brain | 38.16 | 112.7 | 125.26 | 12.4 | 0.12 (0.12) U/L | 33.46 (3.54) U/L | 114.38 | 109.92 | 13.8 | 0.22 (0.33) U/L | Total bilirubin (TBIL) (BALB/c female mice; high dose group, 150 μg LNP/pc): 1.56; Total bilirubin (TBIL) (BALB/c female mice; low dose group, 50 μg/pc): 1.18 (0.13) |
| CCCCCCCCCCCOC(=O)CCCCCN(CCCCCCCC(=O)OC(CCCCCCCC)CCCCCCCC)C(C)CCO (stereo not shown) [Example 9] | 3.74E+05 | inguinal lymph nodes, injection site muscles, non-injection site muscles, whole blood, spleen, bone marrow, mesenteric lymph nodes, heart, liver, kidney, small intestine, stomach and brain | 37.25 | 116.9 | 128.26 | 12.1 | 0.18 (0.15) U/L | 35.44 (3.67) U/L | 115.29 | 107.55 | 14.2 | 0.24 (0.37) U/L | Level of delivered mRNA in the small intestine ([1]; compared with SM-102): relatively higher level; Total bilirubin (TBIL) (BALB/c female mice; high dose group, 150 μg LNP/pc): 1.43; Total bilirubin (TBIL) (BALB/c female mice; low dose group, 50 μg/pc): 1.21 (0.19) |
| CCCCCCCCCCCOC(=O)CCCCCN(CCO)CCCCCCCC(=O)OC(CCCCCCCC)CCCCCCCC [SM102, reference compound] | 1.112E+06 | inguinal lymph nodes, injection site muscles, whole blood, non-injection site muscles, spleen, bone marrow, heart, mesenteric lymph nodes, liver, kidney, small intestine, and brain | 56.18 | 116.88 | 145.96 | 12.6 | 0.32 (0.22) U/L | 36.04 (2.93) U/L | 131.7 | 121.4 | 14.6 | 0.41 (0.24) U/L | PDI [2, 3]: 0.1296; Particle size (nm) [2, 3]: 92.16 nm; Encapsulation rate ([2]; LNP-encapsulated mRNA, Ribogreen kit): 95% |
